Consider ten molecules from PMC5851869 (Bioorganic & medicinal chemistry letters, 2018).

The target of one experiment is pa-HemO (Pseudomonas aeruginosa, UniProt O69002). Briefly: fluorescence quenching assay. The format is binding. The following applies: for fold improvement in potency/affinity compared to compound 2: ratio of KD values relative to inhibitor 2.
A further experiment concerns P. aeruginosa. The format is cell-based, Pseudomonas aeruginosa. The following applies: statement covers both MIC50 and biofilm formation assays.

With `O=C1/C(=C/c2ccccn2)SC(=S)N1CCc1nnn[nH]1` [compound 3], the “fold improvement in potency/affinity compared to compound 2” value (shortened to “fold improvement in potency/affinity”) on pa-HemO is about 2 fold.

For `COc1cccc(/C=C2\SC(=S)N(CCC(=O)O)C2=O)c1` [compound 8], the “fold improvement in potency/affinity” value at pa-HemO is recorded as ~ 2 fold. `COc1ccc(/C=C2\SC(=S)N(CCC(=O)O)C2=O)cc1` [compound 9]: the “fold improvement in potency/affinity” value on pa-HemO was ~ 2 fold.

On to `O=C(O)CCN1C(=O)/C(=C/c2ccc(Cl)cc2)SC1=S` [compound 11], for which the “fold improvement in potency/affinity” value on pa-HemO is over 3 fold.

In the case of `CC(C)c1ccc(/C=C2\SC(=S)N(CCC(=O)O)C2=O)cc1` [compound 13], the “fold improvement in potency/affinity” value on pa-HemO worked out at 5 fold. Turning to `O=C(O)CCN1C(=O)/C(=C\c2ccc(-c3ccccc3)cc2)SC1=S` [compound 18], the “anti-bacterial effect (in words)” value in the experiment on P. aeruginosa is given as “poor anti-bacterial effects”. Take `O=C(O)CCN1C(=O)/C(=C/c2cccc(Nc3ccccc3)c2)SC1=S` [compound 21]: the Kd on pa-HemO is about 1000 nM. Besides, in the experiment on P. aeruginosa, the “anti-bacterial effect (in words)” value was “poor anti-bacterial effects”. Take `O=C(O)CCN1C(=O)/C(=C\c2ccc(-c3cccc(O)c3)o2)SC1=S` [compound 27]: on pa-HemO, the Kd was about 1000 nM. Also, the “anti-bacterial effect (in words)” value with P. aeruginosa was “poor anti-bacterial effects”. Turning to `NCCN1C(=O)/C(=C/c2ccc(-c3ccccc3)cc2)SC1=S` [compound 30], the “anti-bacterial effect (in words)” value in the experiment with P. aeruginosa is recorded as “did not have significant antibacterial activity”. Same read-out and setting: next, `CN(C)CCN1C(=O)/C(=C\c2ccc(-c3ccccc3)cc2)SC1=S` [compound 31]: “did not have significant antibacterial activity”.

In general, Kd refers to the concentration at which binding is half-saturated. Low values mean a tighter complex, high ones a looser complex.
